Test results reported in patent publication US6906065B2, “4-Amino-5-cyano-2-anilino-pyrimidine derivatives and their use as inhibitors of cell-cycle kinases” (AstraZeneca AB, priority 2000, dated 2005).

Molecular target: T1, CDK2/Cyclin E (Homo sapiens, UniProt P24941)
T1 construct: The open reading frames of CDK2 and Cyclin E were isolated by reverse transcriptase-PCR; made in house; host or cells: Sf21 (Spodoptera frugiperda) insect cells, baculovirus co-infection, vector pVL1393
Experiment: in vitro kinase assay (Scintillation Proximity Assay), incorporation of [γ-33-P]-ATP into GST-Rb
Type: biochemical
Conditions: CDK2/Cyclin E partially-purified enzyme, GST-Rb substrate, 0.2 μM ATP, 60 minutes at room temperature; read-out: CDK2 inhibitory activity IC50
Protocol: The compounds were tested in an in vitro kinase assay in 96 well format using Scintillation Proximity Assay (SPA—obtained from Amersham) for measuring incorporation of [γ-33-P]-Adenosine Triphosphate into a test substrate (GST-Retinoblastoma protein; GST-Rb). In each well was placed the compound to be tested (diluted in DMSO and water to correct concentrations) and in control wells either roscovitine as an inhibitor control or DMSO as a positive control. […]
The plates were sealed with Topseal-S plate sealers, left for two hours then spun at 2500 rpm, 1124×g., for 5 minutes. The plates were read on a Topcount for 30 seconds per well. […]
E.coli paste was resuspended in 10 ml/g of NETN buffer (50 mM Tris pH 7.5, 120 mM NaCl, 1 mM EDTA, 0.5% v/v NP-40, 1 mM PMSF, 1 ug/ml leupeptin, 1 ug/ml aprotinin and 1 ug/ml pepstatin) and sonicated for 2×45 seconds per 100 ml homogenate. […] The final product was analysed by Sodium Dodeca Sulfate (SDS) PAGE (Polyacrylamide gel) using 8-16% Tris-Glycine gels (Novex, San Diego, USA).
The open reading frames of CDK2 and Cyclin E were isolated by reverse transcriptase-PCR using HeLa cell and activated T cell mRNA as a template and cloned into the insect expression vector pVL1393 (obtained from Invitrogen 1995 catalogue number: V1392-20). […]

SMILES | IC50
N#Cc1cnc(Nc2ccc(S(=O)(=O)NC3CCC3)cc2)nc1N [Example 21, 4-Amino-5-cyano-2-{4-[N-(cyclobutyl)sulphamoyl]anilino}pyrimidine] | 0.033 µM
CCCNS(=O)(=O)c1ccc(Nc2ncc(C#N)c(N)n2)cc1 [Example 23, 4-Amino-5-cyano-2-[4-(N-propylsulphamoyl)anilino]pyrimidine] | 0.017 µM
